# Measurements as given in PMC8169650, “Identification of Small Molecule Inhibitors of a Mir155 Transcriptional Reporter in Th17 Cells” (Scientific Reports, 2021).
# Like-named read-outs stand apart in the source and are kept apart here.
# Tests used:
# [1] = tested on: Th17 cells from Mir155 reporter mice; assay: HTS viability assay (CellTiter-Glo); assay type: cell-based, mouse; conditions: primary Th17 cells
# Protocol: Next, the HTS assay was further validated for robustness by screening LOPAC1280, a collection of 1280 pharmacologically active compounds. The LOPAC collection contains biologically annotated compounds with diverse mechanism(s) including but not limited to pharma-developed tools, receptor ligands and approved drugs. Seven concentrations of each compound were assayed, ranging from 3 nM to 46 µM as five-fold dilutions. One assay plate was treated with DMSO to determine the assay robustness in the absence of compounds (Fig. 1d). A total of eight assay plates including DMSO plate were tested in the LOPAC pilot screen and the median assay parameter per plate was 21-fold signal-to-background (S/B) ratio and the median Z’-factor was 0.72 (Fig. 1e), thus further validating the robustness of this assay in a 1536-well format. Data was analyzed using a curve class classification algorithm which classifies dose responses in four categories (Class 1, 2, 3 and 4) based on the quality of curve fit to the data (r^2), the magnitude of the response (efficacy), and the number of asymptotes to the calculated curve. Compounds with a curve class of either − 1.1, − 1.2, − 2.1, − 2.2 in the primary assay were classified as pharmacologically active compounds. […] The LOPAC collection was additionally tested for toxic effects using the CellTiter-Glo Luminescent Cell Viability Assay (Promega) which measures ATP levels as a proxy for number of live cells to exclude toxic compounds. […] An ideal compound should antagonize Mir155 reporter with minimal effect on cell viability.
# For the HTS viability assay, the T cells were purified, polarized, plated and treated with compounds as described above for HTS β-gal assay except Columns 1 and 2 had no cells and served as basal control. After 48 h of incubation, 3 μL of CellTiter-Glo reagent (Promega) was added using a Bioraptor Flying Reagent Dispenser (Aurora Discovery-BD)[50]. The plates were incubated for 15 min at room temperature and the luminescence signal was captured using a ViewLux (Perkin Elmer) containing a luminescent filter. […]
# [2] = tested on: IL-17 production in Th17 cells; assay: Intracellular IL-17 flow cytometric cytokine assay under Th17 polarization; assay type: cell-based, mouse; conditions: for IL-17+ cells, gated on live CD4+CD44high cells: DMSO 32% (panel b), 36.8% (panel c); for inhibition at 20 µM: Mus musculus, 96 h, read-out: down-regulation (inhibition) of IL-17 production compared to control
# Protocol: (§1) It has been previously shown that IL-17 production is defective in miR-155 deficient cells. […] To test the hit compounds for IL-17 downregulation, we purified naive CD4^+ T cells from C57BL/6 mice and cultured them under Th17 polarization condition. Small molecules at multiple concentrations (20 µM, 10 µM and 5 µM) were added 18 h post-plating of CD4^+ T cells on anti-CD3/CD28 coated plates and again on day 2 of culture (schema depicted in Fig. 3a).
# (§2) Spleens and lymph nodes were harvested from mice and single cell suspensions were prepared by mechanical disruption followed by lysis of red blood cells with 0.83% ammonium chloride. CD4^+ T cells were either isolated by FACS sorting (BD FACS Aria) or were positively selected using magnetic CD4 microbeads (Miltenyi Biotec). For intracellular IL-17 quantitation by flow cytometry, 0.25 million cells/ well were plated in anti-CD3/CD28 (1 µg/ml) coated 48 well plates. A cocktail containing 10 ng/ml each of IL-6, IL-1 β, IL-21 and TGF-β (0.5 ng/ml) and IFNγ, IL-4, IL-12 neutralizing antibodies (10 μg/ml) was used for the Th17 polarizing conditions. All recombinant cytokines were purchased from R&D Systems and crosslinking antibodies were purified from hybridomas (Harlan). Cells were treated with small molecules at indicated concentrations at 18 h and 48 h of cell plating. On day 4 of the culture, cells were stimulated with 20 ng/ml of phorbol 12-myristate 13-acetate (PMA) and ionomycin (1 μg/ml) for 4 h in the presence of brefeldin A. Following stimulation, cells were stained with fixable viability dye (eBioscience) and surface stained for CD44 and CD4, permeabilized using cytofix/cytoperm (BD biosciences) and subsequently, stained for intracellular IL-17. Foxp3/Transcription Factor Staining kit (eBioscience) kit was used for intranuclear staining of RORγt. Samples were acquired on BD Fortessa and analyzed using Flowjo (Tree star Inc).
# [3] = LC-MS analysis of compound stability
# Protocol: We analyzed by liquid chromatography mass spectrometry (LC–MS) the 10 mM compound stock solutions in DMSO, stored at − 20 °C, that were used in the screening (older batch) versus the “fresh” solutions. […] Sample 2 is another sample that had been kept outside at room temperature for 30 days before evaluation.
# [4] = tested on: Mir155 reporter; assay: Mir155 reporter Beta-Glo HTS assay (β-gal activity); assay type: cell-based, mouse; conditions: Mus musculus, 48 h, read-out: EC50, inhibition of Mir155 reporter expression
# Protocol: To develop an assay for the HTS screen, CD4^+ T cells were purified from spleen and lymph nodes of the Mir155 reporter mice. The purified CD4^+ T cells were cultured under Th17 cell-polarizing conditions in twelve well plates following which differentiated Th17 cells were transferred and expanded in six well plates followed by a resting period of 2 days in T cell media (schema depicted in Fig. 1a). We first optimized the cell number to maximize the assay window. To this end, differentiated Th17 cells were plated at different cell densities in the wells of polystyrene 1536-well plates under Th17 polarizing conditions. T cell activation was accomplished using two protocols. In the first protocol, magnetic beads coupled to anti-CD3 and anti-CD28 antibodies (CD3/CD28 microbeads) were added to mediate T cell activation as induction of MiR155 expression requires engagement of the TCR CD3 complex (signal 1) plus the co-stimulatory molecule CD28 (signal 2). The cells along with the beads were incubated at 37 °C, 5% CO2 for 48 h and, subsequently, high-throughput quantitation of β-gal activity was performed after 30 min of incubation using the Beta-Glo Assay system (Fig. 1b).
# The NPC collection was screened at seven concentrations (top concentration 46 µM; 1:5 dilution thereafter) and drug response curves for the compounds were generated using our qHTS curve class classification algorithm as described above.
# CD4^+ cells were purified from spleens and lymph nodes of Mir155 reporter mice as described above. Briefly, single cell suspensions were prepared by mechanical disruption followed by lysis of red blood cells with 0.83% ammonium chloride. CD4^+ T cells were either isolated by FACS sorting (BD FACS Aria) or were positively selected using magnetic CD4 microbeads (Miltenyi Biotec)[43]. 1 million CD4^+ cells/well were cultured in anti-CD3/CD28 (1 µg/ml each) coated 12 well plates under Th17 polarization conditions following which differentiated Th17 cells were transferred and expanded in six well plates followed by a resting period of 2 days in T cell media. A cocktail containing 10 ng/ml each of IL-6, IL-1 β, IL-21 and TGF-β (0.5 ng/ml) and IFNγ, IL-4, IL-12 neutralizing antibodies (10 μg/ml) was used for the Th17 polarizing conditions. For the HTS assay, 2000 differentiated Th17 cells/well in Th17 polarizing media were added to Greiner-one high base solid bottom white tissue culture treated 1536 well plates (catalog # 789173-F) using a small cassette and a Multidrop Combi dispenser (Thermo Fisher Scientific Inc.,Waltham, MA). Compounds were added using a Kalypsys pintool (Columns 5–48) and magnetic beads coupled to anti-CD3 and anti-CD28 (CD3/CD28 microbeads) were added to mediate T cell activation. CD3/CD28 microbeads were not added to first 2 columns and those wells served as basal control. DMSO was added to columns 3 and 4 and served as 100% signal. The plates were incubated for 48 h at 37 °C, 5% CO2, 95% humidity covered with low evaporation stainless steel lids from Kalypsys. After 48 h of incubation, 5 µl of Beta-Glo reagent (Beta Glo Assay System, Promega) was added using a Bioraptor Flying Reagent Dispenser (Aurora Discovery-BD) and the plates were incubated at room temperature for 30 min. Luminescence signal was captured using a 10 s exposure with a ViewLux (Perkin Elmer) containing a luminescent filter. Beta Glo reagent consists of Beta Glo substrate and buffer that are combined to form the Beta Glo reagent (Beta Glo Assay System, Promega).
# [5] = tested on: CD4+ T cells; assay: Viability dye and CD44 activation staining in the IL-17 flow cytometric assay; assay type: cell-based; conditions: Fig. S2a
# Protocol: as §1, §2
# [6] = Th17 cells from Mir155 reporter mice, β-gal signal
SMILES,cytotoxicity / cell viability [1],"IL-17+ cells, gated on live CD4+CD44high cells ([2]; 20 µM) [%]",inhibition at 20 µM ([2]; CD4+ T) [%],stability by LC–MS [3],EC50 [4] [nM],"live cells (fixable viability dye, Live-dead) ([5]; DMSO 77.4% / 80.6%) [%]",CD4+ CD44+ cells ([5]; DMSO 97.2% / 98.2%) [%],"IL-17 / RORγt plot, percent cells, gated on live CD4+CD44high ([2]; Fig. S2b, DMSO 32.4% / 21.2%) [%]","inhibition at 20 µM ([2]; 20 µM, day 4, C57BL/6 CD4+ T cells) [%]","EC50 [4, 6] [nM]","effect on IL-17 production ([2]; C57BL/6 CD4+ T cells, Th17 polarization)"
"CCCSc1ccc2nc(NC(=O)OC)[nH]c2c1 [albendazole, reference compound]",not because of toxicity of the compounds,14.2,55,stable and pure,2500,–,–,–,–,–,–
"O=C(Nc1ncc([N+](=O)[O-])s1)c1cccs1 [tenonitrozole, reference compound]",not because of toxicity of the compounds,10.4,–,stable and pure,–,70.6,96.4,9.3,68,140,–
"c1ccc2[nH]c(-c3cscn3)nc2c1 [thiabendazole, reference compound]",not because of toxicity of the compounds,31,–,stable and pure,–,–,–,–,–,5500,did not affect IL-17 production
